Data from patent US8003660B2, “Modulators of muscarinic receptors” (Vertex Pharmaceuticals Incorporated, priority 2006, dated 2011).
Where two headings read alike, the source gives them in different places.

How the values were obtained:
Assay type in all cases: cell-based
[1] = target: T1, M4 muscarinic receptor (Homo sapiens, UniProt P08173); test: Functional mobilization of intracellular calcium (FLIPR) in CHO cells expressing M4; conditions: for M4 Activity: CHO cells expressing M4, FLIPR calcium assay; for Emax: CHO; for EC50: CHO cells expressing M4, FLIPR calcium
T1 construct: expressed in transfected cells; host or cells: CHO (M4-CHO)
T1 sequence (P08173 1-479): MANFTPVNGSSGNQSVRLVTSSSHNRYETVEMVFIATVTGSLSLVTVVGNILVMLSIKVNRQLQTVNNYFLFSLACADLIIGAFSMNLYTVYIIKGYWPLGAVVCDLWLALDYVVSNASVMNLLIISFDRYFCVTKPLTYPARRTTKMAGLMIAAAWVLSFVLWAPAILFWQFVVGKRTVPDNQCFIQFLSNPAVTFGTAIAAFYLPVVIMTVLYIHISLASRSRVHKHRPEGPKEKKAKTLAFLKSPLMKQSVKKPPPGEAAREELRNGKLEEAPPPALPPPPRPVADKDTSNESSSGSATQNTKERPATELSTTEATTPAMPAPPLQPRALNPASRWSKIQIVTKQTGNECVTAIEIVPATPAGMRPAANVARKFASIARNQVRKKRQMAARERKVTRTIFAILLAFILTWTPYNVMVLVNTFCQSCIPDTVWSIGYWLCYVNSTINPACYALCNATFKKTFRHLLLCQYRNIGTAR
Outline: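 Recombinant CHO cells loaded with Fluo-3 AM or Calcium 3 dye in pH 7.4 buffer containing 1 mM probenecid, with 0.5% final DMSO. For agonism, compound is added directly. For inhibition, it is preincubated 15 min, or co-applied, before carbachol at EC80. FLIPR fluorescence (ex 488, em 540 nm) is recorded for 60 s.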

[2] = target: T2, M1 muscarinic receptor (Homo sapiens, UniProt P11229); test: Functional mobilization of intracellular calcium (FLIPR) in CHO cells expressing M1; conditions: for M1 Activity: CHO cells expressing M1, FLIPR calcium assay; for Emax: CHO; for EC50: CHO cells expressing M1, FLIPR calcium
T2 construct: expressed in transfected cells; host or cells: CHO (M1-CHO)
T2 sequence (P11229 1-460): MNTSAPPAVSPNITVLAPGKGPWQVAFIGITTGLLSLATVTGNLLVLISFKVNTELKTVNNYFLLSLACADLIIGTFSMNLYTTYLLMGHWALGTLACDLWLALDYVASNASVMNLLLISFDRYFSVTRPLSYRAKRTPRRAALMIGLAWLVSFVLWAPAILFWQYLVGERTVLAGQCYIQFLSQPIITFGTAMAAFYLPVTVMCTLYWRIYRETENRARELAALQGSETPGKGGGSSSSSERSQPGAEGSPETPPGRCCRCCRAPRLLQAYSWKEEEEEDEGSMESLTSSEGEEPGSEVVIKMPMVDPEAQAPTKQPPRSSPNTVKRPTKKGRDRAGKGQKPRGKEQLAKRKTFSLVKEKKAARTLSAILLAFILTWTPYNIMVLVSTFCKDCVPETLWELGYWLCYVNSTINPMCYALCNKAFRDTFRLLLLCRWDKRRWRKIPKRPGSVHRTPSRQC
Outline: (§1)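 Calcium flux is read on FLIPR over 60 sec at 488/540 nm in muscarinic-receptor CHO lines. Antagonist mode adds carbachol at EC80 after 15 min compound preincubation or with simultaneous co-application. Agonist mode adds compound alone. Cells carry Fluo-3 or Calcium 3 dye in probenecid-containing pH 7.4 buffer, 0.5% DMSO final.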

[3] = target: T3, M2 muscarinic receptor (Homo sapiens, UniProt P08172); test: Functional mobilization of intracellular calcium (FLIPR) in CHO cells expressing M2; conditions: for M2 Activity: CHO cells expressing M2, FLIPR calcium assay; for Emax: CHO; for EC50: CHO cells expressing M2, FLIPR calcium
T3 construct: expressed in transfected cells; host or cells: CHO (M2-CHO)
T3 sequence (P08172 1-466): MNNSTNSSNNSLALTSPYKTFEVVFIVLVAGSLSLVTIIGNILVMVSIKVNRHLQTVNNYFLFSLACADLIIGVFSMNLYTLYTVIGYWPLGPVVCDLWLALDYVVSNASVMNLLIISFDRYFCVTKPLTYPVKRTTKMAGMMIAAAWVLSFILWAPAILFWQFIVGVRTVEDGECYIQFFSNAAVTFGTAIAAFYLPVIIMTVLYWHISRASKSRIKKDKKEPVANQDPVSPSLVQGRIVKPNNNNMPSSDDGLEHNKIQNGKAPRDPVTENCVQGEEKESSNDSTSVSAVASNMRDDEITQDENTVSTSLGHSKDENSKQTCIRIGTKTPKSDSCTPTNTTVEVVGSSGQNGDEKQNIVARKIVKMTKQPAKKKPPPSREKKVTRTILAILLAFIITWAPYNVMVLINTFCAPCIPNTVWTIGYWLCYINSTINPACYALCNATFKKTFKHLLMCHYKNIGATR
Outline: as §1

[4] = target: T4, M3 muscarinic receptor (Homo sapiens, UniProt P20309); test: Functional mobilization of intracellular calcium (FLIPR) in CHO cells expressing M3; conditions: for M3 Activity: CHO cells expressing M3, FLIPR calcium assay; for Emax: CHO; for EC50: CHO cells expressing M3, FLIPR calcium
T4 construct: expressed in transfected cells; host or cells: CHO (M3-CHO)
T4 sequence (P20309 whole entry): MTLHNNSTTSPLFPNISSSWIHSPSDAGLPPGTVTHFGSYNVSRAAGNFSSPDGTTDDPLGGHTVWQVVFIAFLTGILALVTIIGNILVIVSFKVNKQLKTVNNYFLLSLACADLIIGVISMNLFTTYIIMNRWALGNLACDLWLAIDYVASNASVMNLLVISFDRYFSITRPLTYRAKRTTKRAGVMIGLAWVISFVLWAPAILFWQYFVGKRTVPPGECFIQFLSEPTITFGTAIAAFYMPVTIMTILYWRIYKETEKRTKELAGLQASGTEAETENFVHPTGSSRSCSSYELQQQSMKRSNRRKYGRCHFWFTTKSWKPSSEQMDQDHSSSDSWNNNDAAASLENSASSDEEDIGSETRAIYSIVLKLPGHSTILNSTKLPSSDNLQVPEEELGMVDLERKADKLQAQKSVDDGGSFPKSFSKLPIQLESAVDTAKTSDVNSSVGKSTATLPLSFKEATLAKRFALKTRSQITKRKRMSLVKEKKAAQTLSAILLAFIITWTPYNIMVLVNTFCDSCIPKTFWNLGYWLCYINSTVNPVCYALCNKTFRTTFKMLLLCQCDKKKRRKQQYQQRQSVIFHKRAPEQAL
Outline: as §1

[5] = 100% efficacy = maximum response obtained with the Carbachol control
[6] = 100% = maximum response obtained with the Carbachol control, read-out: M4 Efficacy
[7] = 100% = maximum response obtained with the Carbachol control, read-out: M1 Efficacy
[8] = 100% = maximum response obtained with the Carbachol control, read-out: M2 Efficacy
[9] = 100% = maximum response obtained with the Carbachol control, read-out: M3 Efficacy

Structure (SMILES)	M4 Activity [1]	Emax [1, 5]	M1 Activity [2]	Emax [2, 5]	M2 Activity [3]	Emax [3, 5]	M3 Activity [4]	Emax [4, 5]	EC50 [1]	Emax [1, 6]	EC50 [2]	Emax [2, 7]	EC50 [3]	Emax [3, 8]	EC50 [4]	Emax [4, 9]
CC(=O)N[C@H]1CC2(CCN(CC(=O)O)CC2)c2ccccc21 [compound 256]	+ (activity was measured to be greater than 5.0 μM)	< 25%	+ (activity was measured to be greater than 5.0 μM)	< 25%	+ (activity was measured to be greater than 5.0 μM)	< 25%	+ (activity was measured to be greater than 5.0 μM)	< 25%								
CC(C)(C)CCN1CCC2(CC[C@H](NC(=O)C3CC(=O)N3)c3ccc(F)cc32)CC1 (stereo partly drawn) [compound 67]									< 2 µM	25 to 100%	< 2 µM	25 to 100%	< 2 µM	25 to 100%	> 5 µM	< 25%
CC(C)(C)CCN1CCC2(CC[C@@H](NC(=O)C3CCCO3)c3ccc(F)cc32)CC1 (stereo partly drawn) [compound 133]									< 2 µM	25 to 100%	< 2 µM	25 to 100%	< 2 µM	25 to 100%	> 5 µM	< 25%
CC(=O)N1CCC[C@H]1C(=O)N[C@@H]1CCC2(CCN(CCC(C)(C)C)CC2)c2ccccc21 [compound 84]									< 2 µM	25 to 100%	2 to 5 µM	25 to 100%	< 2 µM	25 to 100%	> 5 µM	< 25%
CN(C)C(=O)N(C)[C@H]1CCC2(CCN(CCC(C)(C)C)CC2)c2ccccc21 [compound 51]									< 2 µM	25 to 100%	< 2 µM	25 to 100%	> 5 µM	< 25%	> 5 µM	< 25%
CCCCN1CCC2(CC[C@H](NC(C)=O)c3ccccc32)CC1 [compound 4]									2 to 5 µM	25 to 100%	2 to 5 µM	25 to 100%	> 5 µM	< 25%	> 5 µM	< 25%
CN(C)C(=O)N[C@H]1CCC2(CCN(CCC(C)(C)C)CC2)c2ccccc21 [compound 175]									< 2 µM	25 to 100%	> 5 µM	< 25%	> 5 µM	< 25%	> 5 µM	< 25%
CC(C)(C)CCN1CCC2(CC[C@@H](NC(=O)CC3CCOCC3)c3ccc(F)cc32)CC1 [compound 93]									< 2 µM	25 to 100%	2 to 5 µM	25 to 100%	> 5 µM	< 25%	> 5 µM	< 25%
CN(C(=O)C1CCCC1)[C@H]1CCC2(CCN(CCC(C)(C)C)CC2)c2ccccc21 [compound 178]									< 2 µM	25 to 100%	> 5 µM	< 25%	> 5 µM	< 25%	> 5 µM	< 25%
CC(=O)NCCC(=O)N[C@H]1CCC2(CCN(CCC(C)(C)C)CC2)c2cc(F)ccc21 [compound 96]									< 2 µM	25 to 100%	< 2 µM	25 to 100%	< 2 µM	25 to 100%	> 5 µM	< 25%
CCN(C(=O)C1CCCN1C(C)=O)[C@H]1CCC2(CCN(CCC(C)(C)C)CC2)c2ccccc21 (stereo partly drawn) [compound 15]									< 2 µM	25 to 100%	< 2 µM	25 to 100%	> 5 µM	< 25%	> 5 µM	< 25%
CC(=O)N[C@H]1CC2(CCN(C(=O)OC(C)(C)C)CC2)c2ccc(C)cc21 [compound 261]	+ (activity was measured to be greater than 5.0 μM)	< 25%	+ (activity was measured to be greater than 5.0 μM)	< 25%	+ (activity was measured to be greater than 5.0 μM)	< 25%	+ (activity was measured to be greater than 5.0 μM)	< 25%								
